pIC50: −log10 of the molar value. Several values for one entry are separate records, joined by “and”; a condition that tells them apart may be missing. Identical values can stand only once. Like-named read-outs stand apart in the source and are kept apart here.
Key:
[1] = biological target: T1, JARID1B (Homo sapiens, UniProt Q9UGL1); assay: FLAG-JARID1B histone demethylase assay with AlphaScreen detection (HTS and dose response); type: biochemical; conditions: for Assay − Artifact Signal (percent): assay signal minus artifact signal; for inhibition at 20 µM / Inhibitory effect (percent): high-throughput screen, compound 20 μM; for inhibition at 20 µM: read-out: Inhibitory effect (percent); for Assay Signal (percent): effect of compound in JARID1B AlphaScreen assay;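 on Assay Signal (percent): compound tested at 20 µM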;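 on Assay − Artifact Signal (percent): compound tested at 20 µM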;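 on all read-outs here: FLAG-tagged JARID1B at 4 nM acting on a biotinylated H3K4me3 peptide, demethylation read by AlphaScreen luminescence, with hits checked against bio-H3K4me2 without enzyme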
T1 construct: The FLAG tagged full length JARID1B enzyme was expressed in Sf21 insect cells using FLAG-JARID1B baculoviruses; FLAG (N); made in house; host or cells: Sf21 insect cells (baculovirus)

[2] = biological target: T2, JARID1A (Homo sapiens, UniProt P29375); assay: FLAG-JARID1A histone demethylase assay with AlphaScreen detection (HTS and dose response); type: biochemical; conditions: for pIC50: dose response, 50 μM Fe (II), read-out: IC50 against JARID1A
T2 construct: the high-throughput screen of the invention utilizes full length JARID1A or JARID1B; FLAG (N); made in house; host or cells: Sf21 insect cells (baculovirus)
Experimental: (§1) Histone demethylase assays were performed in 384 well white plates (Corning 3574). Demethylase buffer conditions for FLAG-JARID1B were as follows: 10 μM α-KG, 100 μM ascorbate, 50 μM (NH4)2Fe(SO4)2, 50 mM Hepes (pH 7.5), 0.01% (v/v) Tween 20, and 0.1% (w/v) bovine serum albumin. The demethylase reactions included 64 nM bio-H3K4me3 peptide alone or in the presence of 4 nM FLAG-JARID1B enzyme in a 10 μl reaction at 25° C. for 30 minutes. As a positive control, 64 nM bio-H3K4me2 peptide was assayed in the absence of enzyme. Assay conditions for FLAG-JARID1C is the same as for FLAG-JARID1B except that 20 nM enzyme was used. For FLAG-JARID1A, the demethylase buffer was similar to FLAG-JARID1B, except that 125 μM α-KG and 13 nM FLAG-JARID1A enzyme were used. The His-FLAG-UTX and FLAG-JMJD3 demethylase assays also employed the same buffer conditions as for FLAG-JARID1B, with 64 nM bio-H3K27me3 peptide assayed with or without 25 nM His-FLAG-UTX enzyme or 50 nM FLAG-JMJD3 (BPS Bioscience, 50115), and 64 nM bio-H3K27me2 peptide as a positive control. JARID1A, JARID1C, UTX, and JMJD3 histone demethylase assays proceeded at 37° C. for 1 hour.
(§2) The AlphaScreen General IgG (Protein A) detection kit was obtained from PerkinElmer. Demethylated H3K4 products were detected using AlphaScreen antibody/bead mix containing 7.5 mM ethylenediaminetetraacetic acid (EDTA) and 0.15 μg/ml anti-H3K4me1 antibody in a final volume of 20 μl. For detection of demethylated H3K27 products, the AlphaScreen antibody/bead mix containing 7.5 mM EDTA and 0.15 μg/ml anti-H3K27me2 antibody in a final volume of 20 μl. The luminescence signal was measured using the Envision (PerkinElmer) or Pherastar (BMG Labtech) Platereaders.
FLAG-JARID1A was screened against 9,600 compounds. These compound libraries were from the Yale Center for Molecular Discovery. The libraries screened include the MicroSource Gen-Plus, MicroSource Pure Natural Products, NIH Clinical Collection, Enzo Epigenetics, and ChemBridge MW-Set libraries. Compounds dissolved in dimethyl sulfoxide (DMSO) were pintooled into a 384 well plate containing bio-H3K4me3 peptide in demethylase buffer to a final concentration of 20 μM. The reactions were initiated by the addition of 13 nM FLAG-JARID1A, and detected as described above. To eliminate the false positive hits, a counterscreen was performed against bio-H3K4me2 in the absence of enzyme.

[3] = biological target: T3, JARID1C (Homo sapiens, UniProt P41229); assay: FLAG-JARID1C histone demethylase assay with AlphaScreen detection; type: biochemical; conditions: compound 10 μM, 64 nM bio-H3K4me3 peptide
T3 construct: FLAG (N); made in house; host or cells: Sf21 insect cells (baculovirus)
Experimental: as §1, §2

[4] = biological target: T4, UTX (Homo sapiens, UniProt O15550); assay: His-FLAG-UTX H3K27me3 demethylase assay with AlphaScreen detection; type: biochemical; conditions: compound 10 μM, 64 nM bio-H3K27me3 peptide
T4 construct: His (N); FLAG (N); made in house; host or cells: Sf21 insect cells (baculovirus)
Experimental: as §1, with “The His-FLAG-UTX and FLAG-JMJD3 demethylase assays also employed the same buffer conditions as for FLAG-JARID1B, with 64 nM bio-H3K27me3 peptide assayed with or without 25 nM His-FLAG-UTX enzyme or 50 nM FLAG-JMJD3 (BPS Bioscience, 50115), and 64 nM bio-H3K27me2 peptide as a positive control. JARID1A, JARID1C, UTX, and JMJD3 histone demethylase assays proceeded at 37° C. for 1 hour.” left out
as §2, with “For detection of demethylated H3K27 products, the AlphaScreen antibody/bead mix containing 7.5 mM EDTA and 0.15 μg/ml anti-H3K27me2 antibody in a final volume of 20 μl.” left out

[5] = AlphaScreen counterscreen against bio-H3K4me2 peptide in the absence of enzyme (artifact signal); conditions: for Artifact Signal (percent): effect of the compound when incubated with bio-H3K4me2 peptide (counterscreen, no enzyme);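 on all read-outs here: counterscreen run without enzyme against bio-H3K4me2 peptide to remove false positive hits from the JARID1 demethylase AlphaScreen screen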
[6] = compound 10 μM, 64 nM bio-H3K4me3 peptide
[7] = standard demethylase conditions (10 μM α-KG, 50 μM Fe (II))

T1 sequence (Q9UGL1 whole entry): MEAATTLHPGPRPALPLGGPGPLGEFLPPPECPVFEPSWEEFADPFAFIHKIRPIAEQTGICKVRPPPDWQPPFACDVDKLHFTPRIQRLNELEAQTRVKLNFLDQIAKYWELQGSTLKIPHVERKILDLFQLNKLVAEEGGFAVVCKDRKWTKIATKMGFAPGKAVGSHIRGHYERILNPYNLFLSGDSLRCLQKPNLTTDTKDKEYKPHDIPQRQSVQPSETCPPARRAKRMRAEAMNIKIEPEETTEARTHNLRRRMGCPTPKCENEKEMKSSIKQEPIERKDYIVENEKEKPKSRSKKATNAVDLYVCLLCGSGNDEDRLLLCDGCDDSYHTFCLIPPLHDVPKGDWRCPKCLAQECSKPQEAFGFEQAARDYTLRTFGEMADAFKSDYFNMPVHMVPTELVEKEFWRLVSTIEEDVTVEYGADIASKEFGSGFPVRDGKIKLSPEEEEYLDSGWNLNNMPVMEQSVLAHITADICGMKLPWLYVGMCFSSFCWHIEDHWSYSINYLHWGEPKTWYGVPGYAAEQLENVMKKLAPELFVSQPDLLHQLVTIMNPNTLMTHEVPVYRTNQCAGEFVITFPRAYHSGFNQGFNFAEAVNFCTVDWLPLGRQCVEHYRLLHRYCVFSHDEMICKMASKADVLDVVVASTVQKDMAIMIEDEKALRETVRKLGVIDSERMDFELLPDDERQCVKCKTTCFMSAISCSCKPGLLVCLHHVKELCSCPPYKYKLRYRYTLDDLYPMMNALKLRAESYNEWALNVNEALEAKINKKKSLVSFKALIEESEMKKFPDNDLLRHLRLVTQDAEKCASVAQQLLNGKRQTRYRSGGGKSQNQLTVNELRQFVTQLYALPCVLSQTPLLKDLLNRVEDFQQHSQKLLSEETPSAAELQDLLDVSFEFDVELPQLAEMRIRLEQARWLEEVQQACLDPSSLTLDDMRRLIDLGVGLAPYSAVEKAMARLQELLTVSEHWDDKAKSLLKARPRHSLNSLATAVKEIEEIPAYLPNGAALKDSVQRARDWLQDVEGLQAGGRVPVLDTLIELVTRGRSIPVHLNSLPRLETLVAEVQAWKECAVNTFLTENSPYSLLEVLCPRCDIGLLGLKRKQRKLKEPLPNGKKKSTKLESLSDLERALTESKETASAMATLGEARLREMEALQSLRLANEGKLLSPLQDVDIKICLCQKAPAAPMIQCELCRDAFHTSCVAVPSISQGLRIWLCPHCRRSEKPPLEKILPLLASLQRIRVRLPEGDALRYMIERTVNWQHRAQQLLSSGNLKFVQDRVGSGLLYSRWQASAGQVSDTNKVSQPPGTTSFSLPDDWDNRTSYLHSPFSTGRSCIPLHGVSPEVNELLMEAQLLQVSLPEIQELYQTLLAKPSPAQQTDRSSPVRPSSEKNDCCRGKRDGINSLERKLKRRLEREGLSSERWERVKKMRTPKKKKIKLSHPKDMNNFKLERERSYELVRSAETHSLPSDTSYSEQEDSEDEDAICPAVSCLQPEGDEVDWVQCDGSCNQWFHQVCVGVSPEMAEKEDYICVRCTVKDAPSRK
T2 sequence (P29375 whole entry): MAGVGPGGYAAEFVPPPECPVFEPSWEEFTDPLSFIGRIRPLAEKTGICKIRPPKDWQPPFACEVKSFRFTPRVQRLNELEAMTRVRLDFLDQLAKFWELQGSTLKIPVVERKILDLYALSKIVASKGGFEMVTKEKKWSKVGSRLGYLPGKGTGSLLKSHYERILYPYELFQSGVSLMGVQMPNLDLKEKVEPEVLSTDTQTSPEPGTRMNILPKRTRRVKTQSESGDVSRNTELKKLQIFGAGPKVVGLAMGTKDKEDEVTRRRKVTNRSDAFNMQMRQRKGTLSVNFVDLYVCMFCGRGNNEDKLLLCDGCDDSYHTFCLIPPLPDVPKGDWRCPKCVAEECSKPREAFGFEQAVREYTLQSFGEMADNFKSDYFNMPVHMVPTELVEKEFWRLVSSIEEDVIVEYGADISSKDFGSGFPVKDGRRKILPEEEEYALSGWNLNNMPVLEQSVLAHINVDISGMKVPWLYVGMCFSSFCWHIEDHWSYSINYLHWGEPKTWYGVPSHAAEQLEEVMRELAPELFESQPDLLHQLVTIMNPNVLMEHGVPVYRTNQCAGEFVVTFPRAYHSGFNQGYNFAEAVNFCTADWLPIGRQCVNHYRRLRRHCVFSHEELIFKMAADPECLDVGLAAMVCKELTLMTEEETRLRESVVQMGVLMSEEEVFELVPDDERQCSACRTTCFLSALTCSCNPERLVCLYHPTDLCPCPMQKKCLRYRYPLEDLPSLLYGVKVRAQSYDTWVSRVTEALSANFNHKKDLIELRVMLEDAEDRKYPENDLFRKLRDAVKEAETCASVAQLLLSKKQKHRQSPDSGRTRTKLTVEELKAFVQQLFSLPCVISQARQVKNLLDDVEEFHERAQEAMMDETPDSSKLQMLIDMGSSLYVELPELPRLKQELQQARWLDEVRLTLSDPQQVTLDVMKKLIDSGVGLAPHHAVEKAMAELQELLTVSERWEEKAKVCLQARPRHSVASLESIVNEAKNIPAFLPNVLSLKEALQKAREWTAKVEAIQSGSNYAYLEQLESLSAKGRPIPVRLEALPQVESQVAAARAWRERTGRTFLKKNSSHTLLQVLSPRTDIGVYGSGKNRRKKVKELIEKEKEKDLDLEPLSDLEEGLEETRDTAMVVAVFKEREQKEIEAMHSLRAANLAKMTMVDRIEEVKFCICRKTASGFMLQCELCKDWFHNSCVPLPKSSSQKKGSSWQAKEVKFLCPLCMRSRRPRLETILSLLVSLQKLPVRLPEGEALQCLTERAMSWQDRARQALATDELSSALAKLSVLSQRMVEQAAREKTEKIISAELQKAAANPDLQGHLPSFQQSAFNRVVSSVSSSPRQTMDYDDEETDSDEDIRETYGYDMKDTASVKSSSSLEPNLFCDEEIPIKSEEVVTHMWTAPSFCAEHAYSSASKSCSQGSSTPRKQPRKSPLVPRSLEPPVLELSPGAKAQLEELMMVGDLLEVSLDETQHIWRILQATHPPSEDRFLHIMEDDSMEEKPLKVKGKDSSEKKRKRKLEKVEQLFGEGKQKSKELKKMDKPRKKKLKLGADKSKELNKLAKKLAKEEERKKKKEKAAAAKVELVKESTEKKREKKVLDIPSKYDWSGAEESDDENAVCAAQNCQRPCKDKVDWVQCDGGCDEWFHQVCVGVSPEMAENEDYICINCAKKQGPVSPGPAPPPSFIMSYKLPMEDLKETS
T4 sequence (O15550 whole entry): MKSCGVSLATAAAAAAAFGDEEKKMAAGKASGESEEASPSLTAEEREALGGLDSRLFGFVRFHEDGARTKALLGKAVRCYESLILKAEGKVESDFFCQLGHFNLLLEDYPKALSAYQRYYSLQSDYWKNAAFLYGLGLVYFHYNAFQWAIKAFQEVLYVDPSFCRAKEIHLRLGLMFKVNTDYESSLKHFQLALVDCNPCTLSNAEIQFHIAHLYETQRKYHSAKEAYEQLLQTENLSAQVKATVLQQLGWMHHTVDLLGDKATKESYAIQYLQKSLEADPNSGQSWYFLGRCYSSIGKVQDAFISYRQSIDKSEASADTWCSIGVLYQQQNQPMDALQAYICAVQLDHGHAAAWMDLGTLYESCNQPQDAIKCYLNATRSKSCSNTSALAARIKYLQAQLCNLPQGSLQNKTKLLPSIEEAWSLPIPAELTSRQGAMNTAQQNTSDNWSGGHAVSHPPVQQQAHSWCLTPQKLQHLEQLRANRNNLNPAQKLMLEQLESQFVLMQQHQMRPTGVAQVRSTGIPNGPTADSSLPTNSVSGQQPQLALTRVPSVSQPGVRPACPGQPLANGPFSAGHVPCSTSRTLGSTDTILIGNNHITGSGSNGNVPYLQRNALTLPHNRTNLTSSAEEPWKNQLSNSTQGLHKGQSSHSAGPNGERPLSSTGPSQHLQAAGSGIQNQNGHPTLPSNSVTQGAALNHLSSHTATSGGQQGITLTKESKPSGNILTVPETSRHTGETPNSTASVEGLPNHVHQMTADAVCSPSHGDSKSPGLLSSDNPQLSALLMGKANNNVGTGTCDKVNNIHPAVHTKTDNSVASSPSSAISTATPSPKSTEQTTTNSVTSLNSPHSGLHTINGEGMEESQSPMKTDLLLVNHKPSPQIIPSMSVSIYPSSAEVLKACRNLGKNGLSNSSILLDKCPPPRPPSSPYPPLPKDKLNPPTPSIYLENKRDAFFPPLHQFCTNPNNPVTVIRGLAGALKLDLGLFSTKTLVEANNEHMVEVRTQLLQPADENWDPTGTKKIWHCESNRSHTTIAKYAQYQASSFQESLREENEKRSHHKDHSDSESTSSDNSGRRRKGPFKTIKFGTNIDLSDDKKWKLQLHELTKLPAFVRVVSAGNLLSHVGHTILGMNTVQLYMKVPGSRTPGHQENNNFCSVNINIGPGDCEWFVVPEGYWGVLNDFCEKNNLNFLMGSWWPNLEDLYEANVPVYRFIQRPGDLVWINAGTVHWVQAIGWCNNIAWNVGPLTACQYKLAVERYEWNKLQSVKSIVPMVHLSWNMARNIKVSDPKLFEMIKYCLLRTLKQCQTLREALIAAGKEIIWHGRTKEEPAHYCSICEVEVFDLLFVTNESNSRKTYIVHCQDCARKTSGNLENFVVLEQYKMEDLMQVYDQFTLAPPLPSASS

Compound	pIC50 [2]	Assay − Artifact Signal (percent) [1] [%]	Assay Signal (percent) ([1]; validation of HTS actives) [%]	Artifact Signal (percent) [5] [%]	Inhibitory effect (percent) [1, 7] [%]	also measured
O=C(O)c1ccnc(C(=O)O)c1 [2,4-PDCA, 2,4-pyridinedicarboxylic acid monohydrate, reference compound]	5.39 and ~5.40	–	–	–	–	JARID1B demethylase activity [1, 6]: inhibited; JARID1A demethylase activity [2, 6]: inhibited; JARID1C demethylase activity [3]: inhibited; UTX demethylase activity [4]: did not inhibit
Sc1ncnc2nc[nH]c12 [Mercaptopurine]	~6.00	–	–	–	–	–
C[C@](N)(Cc1ccc(O)c(O)c1)C(=O)O [Methyldopa]	< 6.00	–	–	–	–	–
COC(=O)c1cc(Br)c(OCc2ccccc2)c(CO[Si](C(C)(C)C)(C(C)(C)C)C(C)(C)C)c1OCc1ccccc1 [YU221143]	–	26.59	22.60	−3.99	–	inhibition at 20 µM [1, 7]: 40.9%
BACITRACIN [YU033699, reference compound]	–	–	–	–	74.07	Validation result of HTS active: effect of the compound in the JARID1B AlphaScreen demethylase assay ([1]; validation of HTS actives, total signal before subtraction of artifact signal): 6.01; Artifact signal: effect of the compound when it is incubated with bio-H3K4me2 peptide ([5]; counterscreen, bio-H3K4me2 peptide, no enzyme): −1.65

Further lines, with some results ahead:

pIC50 [2]	Assay − Artifact Signal (percent) [1] [%]	Assay Signal (percent) ([1]; validation of HTS actives) [%]	Artifact Signal (percent) [5] [%]	Inhibitory effect (percent) [1, 7] [%]	Compound	also measured
≥ 5.52	42.55	40.43	−2.12	–	COc1ccc(OC)c(Nc2nc(=O)c3cccnc3s2)c1 [YU151897]	inhibition at 20 µM [1, 7]: 47.6%
–	96.69	99.69	3.00	–	O=C(O)c1ccnc(C(=O)O)c1 [YU221215, 2,4-Pyridinedicarboxylic Acid, reference compound]	inhibition at 20 µM ([1]; IDs marked *: additional hits under reaction condition with 1 mM α-KG): 40.8%
–	36.96	33.76	−3.21	60.48	CALCEIN [YU034124, reference compound]	–
–	54.26	78.58	24.32	65.23	CARMINIC ACID [YU155214, reference compound]	–
